From patent US20250179057A1, “MEK IMMUNE ONCOLOGY INHIBITORS AND THERAPEUTIC USES THEREOF” (Immuneering Corporation, priority 2022, published 2025)
Where “and” joins values, the source holds several entries; their conditions need not be identical. Equal entries are not always repeated.

How the values were obtained:
[1] = tested on: phospho-MEK in A549 cells; assay: Cell-based pMEK (pMEK:tMEK, CRAF bypass) in A549 cells; details: 2 h, pMEK to total MEK normalized to DMSO control
Description: (§1) Materials and Methods: A549 or A375 cells were seeded in 6-well plates at an appropriate seeding density on day 0. On day 2 or 3, after checking the health and confluency of cells, the media was aspirated and replaced with 1 mL media containing a predetermined concentration of compound and incubated for 2 hours. After 2 hours, the media was aspirated, and the cells washed 2 times with cold PBS. Cells were lysed on ice, with 50 uL 1×CST lysis buffer +1 mM PMSF for 5 minutes. After 5 minutes, cells were removed using a scraper and transferred to cold 1.5 mL tubes, and centrifuged for 10 min, 4° C., 14,000×g. Supernatant was gently removed and snap frozen in liquid nitrogen. Protein concentration of the lysate was determined using Bradford Reagent (analyzed using SpectraMax M2E) and diluted to 1 mg/mL or pERK or 1.5 mg/mL for pMEK analysis. […] All dilutions were in Milk-free antibody diluent.
(§2) A549 or […] cells were treated in duplicate for two hours with compounds at varying concentrations. After two hours, the cells were lysed, snap frozen, and stored at −80° C. After storage, the lysate was quantified with the Bradford assay. Before the lysates were prepared to run on the Jess, the lysates were diluted to 1 mg/mL for pERK analysis and 1.5 mg/mL pMEK analysis using quantitative Western blotting. ERK and MEK phosphorylation levels were estimated by taking the ratio of phospho-protein to total protein and normalizing to the DMSO control.
as §2

[2] = tested on: phospho-ERK in A549 (KRAS G12S) cells; assay: Cell-based pERK (pERK:tERK) in A549 cells; set-up: A549-pERK 10 uM, 2 h: unit not given here; details: 2 h; for A549-pERK (10 nM, 2 h): phospho- to total protein ratio normalized to DMSO control (Table 9); for A549-pERK 10 uM, 2 h: phospho- to total protein ratio normalized to DMSO control
Description: Media components, reagents and buffers for Western Blot: All cell culture media components were obtained from ThermoFisher Scientific. […] Laemmli sample loading 4× buffer (ThermoFisher Scientific, Cat No. NP0007). MOPS/SDS electrophoresis running buffer (GenScript, Cat No. M00138).
Subculture conditions: Adherent cells were grown to approximately 90% confluency, culture medium was aspirated and the cell layer was rinsed with PBS. […] Eight mL media was added, cells were spun down at 1000×g for 5 minutes. Cell pellet was re-suspended in 10 mL media and an appropriate volume was inoculated into a new culture flask.
Compound (drug) treatment: Cells were plated in a 6-well plate at a density of 250,000-300,000 cells/well in 3 mL media and incubated 37° C. in a humidified, 5% CO2 incubator. […] These solutions were added to the cells (3 uL/well), mixed by swirling the plate, and incubated at 37° C. in a humidified, 5% CO2 incubator for 2 hours.
Cell lysis and protein estimation: Cells were washed with PBS, and scraped in 50 μL of lysis buffer containing protease and phosphatase inhibitors. Cell lysates were stored at −20° C. Cell lysates were thawed and spun at 12,000 rpm for one minute, 3 ul of the supernatant was added to 500 μL of Coomassie blue reagent following by 500 μL of water. […] Protein standards were used (0-20 mg/mL) to calculate protein concentrations of test samples.
All samples were heated at 95° C. for 5 minutes, cooled to room temperature and spun down. […] After the run, gel was removed and protein transfer was done using iBlot for 7 minutes, as per manufacturer's recommendations. After the transfer, nitrocellulose membrane was incubated on a shaker in 5 mL of blocking buffer at room temperature for 1 hr. The blot was then incubated overnight on a shaker in 5 ml of blocking buffer containing 0.2% Tween-20 and primary antibody, at room temperature. Anti-phospho-STAT3 antibody was used at a dilution of 1:500, the other 3 primary antibodies were used at a dilution of 1:1000.
Next day, the blot was washed 3 times for 10 min each with 10 mL of TBST followed by incubation on a shaker in 5 ml of blocking buffer containing 0.2% Tween-20 and 0.5 ul of the IRDye labeled secondary antibodies, diluted 1:10000, at room temperature for 1 hr. The blot was then washed 3 times for 10 min each with 10 mL of TBST and dried between sheets of paper towels. Imaging was done using LICOR's Odyssey imaging system, quantitation was done using their software, Image Studio version 3.1.
as §1
They were grown in T75 flasks in DMEM containing 10% FBS and Pen-Strep. at 37° C. in a humidified, 5% CO2 incubator. The adherent cells were grown to about 90% confluency, culture medium was aspirated, and the cell layer was rinsed with PBS. […] Eight mL media was added, cells were spun down at 1000 g for 5 minutes. Cell pellet was re-suspended in 10 mL media and an appropriate volume was inoculated into a new culture flask. Cells were plated in a 6-well plate at a density of 250,000-300,000 cells/well in 3 mL media and incubated 37° C. in a humidified, 5% CO2 incubator.

| SMILES | A549-CRAF BP 100 nM, 2 h [1] | A549-pERK (10 nM, 2 h) [2] | A549-pERK 10 uM, 2 h [2] |
| --- | --- | --- | --- |
| CNS(=O)(=O)Nc1cccc(Cc2c(CN(C)C3CC3)c3ccc(OC(=O)N(C)C)cc3oc2=O)c1F [Compound 82] | 72.3 | 64.9 |  |
| CNS(=O)(=O)Nc1cccc(Cc2c(CNCC(F)(F)F)c3ccc(OC(=O)N(C)C)cc3oc2=O)c1F [Compound 75] | 66.5 |  |  |
| CNS(=O)(=O)Nc1cccc(Cc2c(CN3CC(OC)C3)c3ccc(OC(=O)N(C)C)cc3oc2=O)c1F [Compound 74] | 59.2 | 75.3 |  |
| CNS(=O)(=O)Nc1nccc(Cc2c(C)c3cc(Cl)c(OC(=O)N(C)C)cc3oc2=O)c1F [Compound 111] | 48.6 (mean, n = 2) | 4.63 |  |
| Cc1c(Cc2ccnc(NS(=O)(=O)C3CC3)c2F)c(=O)oc2cc(OC(=O)N(C)C)ccc12 [Compound 112] | 52.9 (mean, n = 2) | 46.3 |  |
| CCCN(C)Cc1c(Cc2cccc(NS(=O)(=O)NC)c2F)c(=O)oc2cc(OC(=O)N(C)C)ccc12 [Compound 81] | 78.3 | 57.6 |  |
| CCS(=O)(=O)Nc1cccc(Cc2c(C)c3ccc(OC(=O)N(C)C)cc3oc2=O)c1F [Compound 107] | 39.9 | 18.0 |  |
| CNS(=O)(=O)Nc1cccc(Cc2c(CN(C)Cc3ccccc3)c3ccc(OC(=O)N(C)C)cc3oc2=O)c1F [Compound 80] | 56.1 | 56.4 |  |
| CNS(=O)(=O)Nc1cccc(Cc2c(CN(C)C3CCC3)c3ccc(OC(=O)N(C)C)cc3oc2=O)c1F [Compound 86] | 53.2 | 96.4 |  |
| C#CCNCc1c(Cc2cccc(NS(=O)(=O)NC)c2F)c(=O)oc2cc(OC(=O)N(C)C)ccc12 [Compound 14] | 59.1 | 64 |  |
| CNS(=O)(=O)Nc1cccc(Cc2c(C)c3cc(Cl)c(OC(=O)N(C)C)cc3oc2=O)c1F [Compound 109] | 41.9 (mean, n = 2) | 4.51 |  |
| CNS(=O)(=O)Nc1cccc(Cc2c(CN3CC4(CCC4)C3)c3ccc(OC(=O)N(C)C)cc3oc2=O)c1F [Compound 153] | 54.1 | 50.2 |  |
| Cc1c(Cc2ccnc(NS(=O)(=O)C3CCC3)c2F)c(=O)oc2cc(OC(=O)N(C)C)ccc12 [Compound 125] | 41.7 | 54.4 |  |
| CNS(=O)(=O)Nc1cccc(Cc2c(CN(C)CC(C)C)c3ccc(OC(=O)N(C)C)cc3oc2=O)c1F [Compound 78] | 64.2 | 78.6 |  |
| CNS(=O)(=O)Nc1cccc(Cc2c(CN3CCNCC3)c3cc(Cl)c(OC(=O)N(C)C)cc3oc2=O)c1F [Compound 21] | 47.9 (mean, n = 2) | 20.4 |  |
| CNS(=O)(=O)Nc1cccc(Cc2c(CNCC(=O)N(C)C)c3ccc(OC(=O)N(C)C)cc3oc2=O)c1F [Compound 57] |  | 106 and 119 | 7.33 |
| CNS(=O)(=O)Nc1cccc(Cc2c(CNCC(=O)N3CCNCC3)c3ccc(OC(=O)N(C)C)cc3oc2=O)c1F [Compound 191] |  | 131 | 8.6 |
| CNS(=O)(=O)Nc1cccc(Cc2c(CN3CCN(C4CC4)CC3)c3ccc(OC(=O)N(C)C)cc3oc2=O)c1F [Compound 64] |  | 73 |  |
| CNS(=O)(=O)Nc1nccc(Cc2c(CN3CC(F)(F)C3)c3ccc(OC(=O)N(C)C)cc3oc2=O)c1F [Compound 149] |  | 69.1 |  |
| CNS(=O)(=O)Nc1cccc(Cc2c(CNC(N)=O)c3ccc(OC(=O)N(C)C)cc3oc2=O)c1F [Compound 105] |  |  | 7.39 |

| SMILES | A549-CRAF BP 100 nM, 2 h [1] | A549-pERK (10 nM, 2 h) [2] | A549-pERK 10 uM, 2 h [2] |
| --- | --- | --- | --- |
| CNS(=O)(=O)Nc1cccc(Cc2c(CNCc3ccco3)c3ccc(OC(=O)N(C)C)cc3oc2=O)c1F [Compound 56] |  | 92.9 |  |
| CNS(=O)(=O)Nc1cccc(Cc2c(CNC(=O)C(C)C)c3ccc(OC(=O)N(C)C)cc3oc2=O)c1F [Compound 208] |  | 105 | 23.64 |
| CNS(=O)(=O)Nc1cccc(Cc2c(CNCC3CC3)c3ccc(OC(=O)N(C)C)cc3oc2=O)c1F [Compound 26] |  | 94.2 |  |
| CNS(=O)(=O)Nc1cccc(Cc2c(CN3CC(C)(C)C3)c3ccc(OC(=O)N(C)C)cc3oc2=O)c1F [Compound 143] |  | 104 |  |
| CNS(=O)(=O)Nc1cccc(Cc2c(CNc3cn[nH]c3)c3ccc(OC(=O)N(C)C)cc3oc2=O)c1F [Compound 92] |  | 93.8 |  |
| CNS(=O)(=O)Nc1cccc(Cc2c(CN(C)c3cccc(Cl)c3)c3ccc(OC(=O)N(C)C)cc3oc2=O)c1F [Compound 95] |  | 80.2 |  |
| CNS(=O)(=O)Nc1cccc(Cc2c(CNC(C)c3ccccc3)c3ccc(OC(=O)N(C)C)cc3oc2=O)c1F (centres unmarked) [Compound 63] |  | 88 |  |
| CNS(=O)(=O)Nc1cccc(Cc2c(CN3CCN(C(C)C)CC3)c3ccc(OC(=O)N(C)C)cc3oc2=O)c1F [Compound 62] |  | 73 |  |
| CNS(=O)(=O)Nc1cccc(Cc2c(CNc3ccccc3)c3ccc(OC(=O)N(C)C)cc3oc2=O)c1F [Compound 30] |  | 54.3 |  |
| CNC1CN(Cc2c(Cc3cccc(NS(=O)(=O)NC)c3F)c(=O)oc3cc(OC(=O)N(C)C)ccc23)C1 [Compound 164] |  | 102 |  |
| CNS(=O)(=O)Nc1cccc(Cc2c(CNC(=O)c3c[nH]nn3)c3ccc(OC(=O)N(C)C)cc3oc2=O)c1F [Compound 211] |  | 121 | 70.75 |
| CNS(=O)(=O)Nc1cccc(Cc2c(CN3CCOCC3=O)c3ccc(OC(=O)N(C)C)cc3oc2=O)c1F [Compound 181] |  | 100 | 22.23 |
| CNS(=O)(=O)Nc1cccc(Cc2c(CN3CC(N(C)C)C3)c3ccc(OC(=O)N(C)C)cc3oc2=O)c1F [Compound 154] |  | 64 |  |
| CNS(=O)(=O)Nc1cccc(Cc2c(CN3CC4CC3CN4)c3ccc(OC(=O)N(C)C)cc3oc2=O)c1F (centres unmarked) [Compound 138] |  | 96.9 |  |
| CNS(=O)(=O)Nc1cccc(Cc2c(CC(=O)Nc3ccn[nH]3)c3ccc(OC(=O)N(C)C)cc3oc2=O)c1F [Compound 202] |  | 119 |  |
| CCN1CCN(Cc2c(Cc3cccc(NS(=O)(=O)NC)c3F)c(=O)oc3cc(OC(=O)N(C)C)ccc23)CC1=O [Compound 69] |  | 101 |  |
| CNS(=O)(=O)Nc1cccc(Cc2c(CNCC(=O)O)c3cc(Cl)c(OC(=O)N(C)C)cc3oc2=O)c1F [Compound 133] |  | 88.1 | 23.41 |
| CNS(=O)(=O)Nc1cccc(Cc2c(CNCCC(F)(F)F)c3ccc(OC(=O)N(C)C)cc3oc2=O)c1F [Compound 66] |  | 104 |  |
| CNS(=O)(=O)Nc1cccc(Cc2c(CN3CC(C#N)C3)c3ccc(OC(=O)N(C)C)cc3oc2=O)c1F [Compound 172] |  | 111 |  |
